The results in this text go back to patent US20240010635A1, “NOVEL INDIRUBIN DERIVATIVES HAVING HETEROBICYCLIC MOIETIES AND THE USE THEREOF” (priority 2022, published 2024).

Each structure is given as a SMILES string.

What all share (type): cell-based
Experiment [1] has as its system MV4-11. The experiment can be described thus: Cell proliferation inhibition in AML cell line MV4-11 (Alamar Blue). Particulars: Homo sapiens, MV4-11, 72 hours, read-out: Cell proliferation inhibitory activity (GI50) MV4-11. The text has this:
(§1) Cell proliferation inhibition experiments on acute myeloid leukemia (AML) cell lines tested FLT3 inhibitory activity using MV4-11, Molm-13, and Molm-14 cells, which are FLT3-ITD-expressed AML cell lines. The origin of all cell lines is human-derived cell lines, and the place of purchase and culture conditions of each cell line are as follows.
(§2) MV4-11 cells were purchased form the American Type Culture Collection (ATCC, Rockville, MD, USA, cat #CRL-9591), Molm-13 (DSMZ, cat #ACC554), Molm-14 (DSMZ, cat #ACC777), and then cultured in RPMI 1640 medium (Corning Co. 10-040-CV) supplemented with 10% fetal bovine serum, 1% penicillin/streptomycin and 4 mM L-glutamine (Life Technology, GrandIsland, NY).
(§3) Cell viability was evaluated by Resazurin redox-based analysis method with Alamar Blue Assay Kit (Invitrogen, USA). Specifically, for MV4-11, Molm-13 and Molm-14 cells, 8000 cells were plated on 384-well plates in 45 μl of medium. Compounds were treated with dimethyl sulfoxide (DMSO) as a negative control group. After 3 days (72 hours) of compound addition, 5 μl of Alamar Blue kit reagent was added to each well of 384-well plate and incubated at 37° C. for 2 hours in a humidified CO2 incubator. After incubation, fluorescence density (Flu) was measured at a wavelength of 544 nm and 590 nm using SpectraMax iD3 Multi Mode Microplate Reader (Molecular Devices, ID3-STD). GI50 was calculated by nonlinear regression using Prism version 5.01 (GraphPad, LaJolla, CA, USA).
In general terms: Alamar Blue is a resazurin reagent that responds to reducing activity.

The test system of experiment [2] is Molm-13. Briefly: Cell proliferation inhibition in AML cell line Molm-13 (Alamar Blue). Particulars: Homo sapiens, Molm-13, 72 hours, read-out: Cell proliferation inhibitory activity (GI50) Molm-13.
Text: as §1, §2, §3

For experiment [3], the system named is Molm-14. The experiment can be described thus: Cell proliferation inhibition in AML cell line Molm-14 (Alamar Blue). Particulars: Homo sapiens, Molm-14, 72 hours, read-out: Cell proliferation inhibitory activity (GI50) Molm-14.
Text: as §1, §2, §3

`O=C1Nc2cc(Br)ccc2/C1=C1/Nc2ccccc2/C1=N\OCCN1CCNCC1` [Comparative Example 1, reference compound]: the GI50 was 20 nM in experiment [1], 11.2 nM in experiment [2] and 9.36 nM in experiment [3].
The corresponding values for `O=C1Nc2ccc(Br)cc2/C1=C1/Nc2ccccc2/C1=N\OCCN1CCNCC1` [Comparative Example 2, reference compound] are 7 nM, 4.08 nM and 4.08 nM.
For the compound `O=C1Nc2ccc(F)cc2/C1=C1/Nc2ccccc2/C1=N\OCCN1CCNCC1` [Comparative Example 3, reference compound], the GI50 is 3.7 nM in experiment [1], 2.53 nM in experiment [2] and 1.6 nM in experiment [3].
